Source: article PMC6099682, “(-)-Shikimic Acid as a Chiral Building Block for the Synthesis of New Cytotoxic 6-Aza-Analogues of Angucyclinones” (Molecules : A Journal of Synthetic Chemistry and Natural …, 2018)
Read-outs that look alike come from different tables or passages of the source.

Experiments:
[1] = tested on: PC-3 (prostate cancer); experiment: Sulforhodamine B cytotoxicity assay, PC-3; type: cell-based; settings: for IC50: 72 h continuous exposure, SRB assay, mean ± SD; for Selectivity index (SI), ratio of IC50 in CoN in cancer cells, PC-3: CCD841-CoN IC50 / PC-3 IC50
Method: (§1) To analyse the scope of the shikimic-fragment incorporated in the angucycline scaffold on the cytotoxic activity of these compounds, we included five previously obtained compounds (Figure 2, [32]). Therefore, the cytotoxicity of the new nine synthesised compounds, and of the five aforementioned compounds, was evaluated in vitro against different cancer cell lines: PC-3 (prostate cancer), HT-29 (colon cancer), MCF-7 (breast cancer), and one non-tumoral cell line, human colon epithelial cells (CCD841 CoN). A conventional colorimetric assay was set up to estimate the IC50 values, which represent the concentration of a drug that is required for 50% inhibition in vitro after 72 h of continuous exposure to the test compounds. Several serial dilutions (from 1.25 to 100 µM) for each sample were evaluated in triplicate.
(§2) The experimental cell lines were obtained from the American Type Culture Collection. HT-29 (colon cancer cell line), PC-3 (prostate cancer), MCF-7 (breast cancer), and CCD841 CoN (colon epithelial) were grown in DMEM-F12 containing 10% FCS, 100 U/mL penicillin, 100 µg/mL streptomycin, and 1 mM glutamine.
(§3) The in vitro cytotoxic activities of all the compounds were evaluated on cell lines previously mentioned by the sulforhodamine B assay, according to [42]. Briefly, cells were seeded at a plating density of 5 × 10^3 cells/well into 96 well plates. Cells were incubated at 37 °C for 24 h to allow cell attachment. The test compounds at indicated final concentrations were added to the culture medium and the cell cultures were continued for 72 h under the same conditions. Stock solutions of compounds were prepared in DMSO. Control cultures received 0.1% DMSO alone. At the end of the treatment, cells were fixed with trichloroacetic acid (50% w/v) at 4 °C and, subsequently, washed with water. Cells were stained with 0.1% sulforhodamine B in 1% acetic acid for 30 min. Posteriorly, the cells were washed acetic acid (1%) to remove unbound sulforhodamine B. Protein-bound stain was solubilized with 10 mM unbuffered Tris base). The optical density was determined using a […] plate reader (540 nm). The obtained values are transformed to percentages of viable cells versus control treatment and the IC50 values calculated for each compound in the cell lines were studied using the SigmaPlot 12.0 software (Systat Software, San Jose, CA, USA). Values shown are the mean ± SD of the three independent experiments in triplicate.

[2] = tested on: human colon epithelial cells (CCD841 CoN); experiment: Sulforhodamine B cytotoxicity assay, non-tumoral CCD841 CoN; type: cell-based; settings: CCD-841CoN, 72 h continuous exposure, SRB assay, mean ± SD
Method: as §1, §2, §3

[3] = tested on: MCF-7 (breast cancer); experiment: Sulforhodamine B cytotoxicity assay, MCF-7; type: cell-based; settings: for Selectivity index (SI), ratio of IC50 in CoN in cancer cells, MCF-7: CCD841-CoN IC50 / MCF-7 IC50; for IC50: Homo sapiens, MCF7, 72 h continuous exposure, SRB assay
Method: as §1, §2, §3

[4] = tested on: HT-29 (colon cancer); experiment: Sulforhodamine B cytotoxicity assay, HT-29; type: cell-based; settings: for IC50: 72 h continuous exposure, SRB assay, mean ± SD; for Selectivity index (SI), ratio of IC50 in CoN in cancer cells, HT-29: CCD841-CoN IC50 / HT-29 IC50
Method: as §1, §2, §3

[5] = mean ± SD, read-out: IC50 Values MCF-7

SMILES | IC50 ([1]; 72 h) [µM] | Selectivity index (SI), ratio of IC50 in CoN in cancer cells, PC-3 [1] | IC50 [2] [µM] | Selectivity index (SI), ratio of IC50 in CoN in cancer cells, MCF-7 [3] | IC50 [3, 5] [µM] | IC50 [4] [µM] | Selectivity index (SI), ratio of IC50 in CoN in cancer cells, HT-29 [4] | IC50 ([4]; Homo sapiens, HT-29, 72 h) [µM] | melting point [°C] | IC50 ([3]; read-out: IC50 value MCF-7) [µM] | IC50 [1] [µM]
COc1cccc2cnc3c(c12)C(=O)c1ccccc1C3=O [Compound 20, 1-Methoxybenzo[b]phenanthridine-7,12-dione] | 7.8 ± 1 | 3.0 | 23.6 ± 3.4 | 1.7 | 14 ± 1.7 | 3.7 ± 1.2 | 6.4 | ~3 |  |  | 
CO[C@@H]1[C@@H]2C(=CN(N(C)C)C3=C2C(=O)c2ccccc2C3=O)C[C@@H](OC)[C@@H]1OC [Compound 15, (1R,2S,3R,12bR)-6-(Dimethylamino)-1,2,3-trimethoxy-1,2,3,4,6,12b-hexahydrobenzo[b]phenanthridine-7,12-dione] | 34.8 ± 0.3 | 2.3 | 81.6 ± 15.8 | 1.0 | 78.1 ± 6.9 |  | 2.8 | 29.2 ± 6.8 | 128.5 |  | 
CO[C@@H]1[C@H](OC)c2c(cnc3c2C(=O)c2ccccc2C3=O)C[C@H]1OC [Compound 17, (1R,2S,3R)-1,2,3-Trimethoxy-1,2,3,4-tetrahydrobenzo[b]phenanthridine-7,12-dione] | 3.9 ± 0.6 | 3.0 | 11.8 ± 1.3 | 1.0 | 11.9 ± 1.5 | 3.3 ± 0.9 | 3.6 | ~3 | 184.8 |  | 
CO[C@H]1C=Cc2cnc3c(c2[C@@H]1OC)C(=O)c1ccccc1C3=O [Compound 19c, (1S,2S)-1,2-Dimethoxy-1,2-dihydrobenzo[b]phenanthridine-7,12-dione] | 4 ± 0.4 | 4.4 | 17.4 ± 2 | 1.4 | 12.8 ± 1.4 |  | 0.8 | 21 ± 3.6 | 117.5 |  | 
CO[C@H]1C=Cc2cnc3c(c2[C@@H]1OC)C(=O)c1ccc(C)nc1C3=O [Compound 19b, (1S,2S)-1,2-Dimethoxy-9-methyl-1,2-dihydropyrido[3,2-b]phenanthridine-7,12-dione] |  | 0.7 | 0.3 ± 0.02 | 1.6 | 0.19 ± 0.04 | 0.39 ± 0.04 |  | < 0.4 | 161.2 |  | 
CO[C@@H]1[C@@H]2C(=CNC3=C2C(=O)c2cccc(O)c2C3=O)C[C@@H](OC)[C@@H]1OC [Compound 16b, (1R,2S,3R,12bR)-8-Hydroxy-1,2,3-trimethoxy-1,2,3,4,6,12b-hexahydrobenzo[b]phenanthridine-7,12-dione] | 6.6 ± 1.1 | 2.3 | 15.5 ± 3.1 | 1.3 | 11.5 ± 3.1 |  | 2.9 | 5.3 ± 0.8 | 177.3 |  | 
CO[C@H]1C=Cc2cnc3c(c2[C@@H]1OC)C(=O)c1cccnc1C3=O [Compound 19a, (1S,2S)-1,2-Dimethoxy-1,2-dihydropyrido[3,2-b]phenanthridine-7,12-dione] |  | 0.5 | 0.04 ± 0.01 | 4.0 | 0.01 ± 0.005 |  |  |  | 78.8 | ~0.01 | 
CC(=O)Oc1cccc2c1C(=O)C1=C(C2=O)[C@H]2C(=CN1N(C)C)C[C@@H](O[Si](C)(C)C(C)(C)C)[C@@H]1OC(C)(C)O[C@H]21 [Compound 7b] | 2.4 ± 0.9 | 0.3 | 0.8 ± 0.1 | 0.1 | 12.1 ± 4 |  | 0.4 | 2.1 ± 1.2 |  |  | 
CC1(C)O[C@@H]2[C@@H]3C(=CNC4=C3C(=O)c3ccccc3C4=O)C[C@@H](O[Si](C)(C)C(C)(C)C)[C@@H]2O1 [Compound 8] | 5.7 ± 1.3 | 2.4 | 13.8 ± 1 | 3.3 | 4.2 ± 4.2 |  | 1.8 | 7.8 ± 0.9 |  |  | 
CN(C)N1C=C2C[C@@H](O[Si](C)(C)C(C)(C)C)[C@@H]3OC(C)(C)O[C@@H]3[C@H]2C2=C1C(=O)c1c(O)cccc1C2=O [Compound 7a] | < 1 | 3.3 | 2.3 ± 0.3 | 0.1 | 16 ± 1 | 0.2 ± 0.05 | 11.5 | < 0.4 |  |  | 0.7 ± 0.1
CC1(C)O[C@@H]2[C@H](O1)c1c(cnc3c1C(=O)c1c(O)ccc(O)c1C3=O)C[C@H]2O[Si](C)(C)C(C)(C)C [Compound 9b] | 13.1 ± 2 | 1.2 | 15.6 ± 2.1 | 0.6 | 28.3 ± 4 |  | 1.1 | 15 ± 4.2 |  |  | 
CC1(C)O[C@@H]2[C@H](O1)c1c(cnc3c1C(=O)c1ccccc1C3=O)C[C@H]2O[Si](C)(C)C(C)(C)C [Compound 9a] | 7.6 ± 1.2 | 0.4 | 2.8 ± 0.4 | 0.2 | 17.8 ± 3 |  | 0.8 | 3.7 ± 0.8 |  |  | 
